Results on one compound are retold here after patent US20220243230A1, “BIOCONVERSION OF 4-COUMARIC ACID TO RESVERATROL” (Conagen Inc., priority 2022, published 2022).

The test system of this series is yeast cultures. The series is described as follows: effect of 4-coumaric acid at different concentrations on yeast cultures. As to conditions: strains CNFS109 and CNFS110, 48 hours, 30 °C, FIG. 1. It counts as cell-based, S. cerevisiae. The method, then:
The strains of Example 1 were tested in microcultures with 500 mg/L of 4-coumaric acid fed 24 hours post inoculation. CNFS109 and CNFS110 were inoculated into 50 ml of synthetic drop out medium without uracil (Sigma-Aldrich, St. Louis, Missouri) and incubated overnight under shaking conditions. Saturated culture was dispensed into individual wells in 24 well plates that contained 2 ml of synthetic drop out medium without uracil. 4-coumaric acid dissolved in acidified ethanol (20 g/L stock, in ethanol : water : HCl=50:49:1) was added to each well, to form media having 4-coumaric concentrations of 0 mg/L, 100 mg/L, 500 mg/L, 1000 mg/L, and 2000 mg/L, respectively. All experiments were performed in triplicate. The cultures were incubated under shaking for 48 hours (250 rpm, 30 ° C.).
The bar graph of FIG. 1 illustrates the effect of 4-coumaric acid at different concentrations on yeast cultures. […] Due to the toxicity associated with high concentrations of 4-coumaric acid which inhibited yeast from growing and metabolizing, resveratrol bioconversion was only observed when 4-coumaric was added to the yeast culture at relatively lower concentrations (FIG. 2).

The structures appear in SMILES notation.

Take `O=C(O)/C=C/c1ccc(O)cc1` [4-coumaric acid]: the “survival rate of yeast culture” value (1 g/L or 2 g/L added to the culture) is given as “declined”. The “impact due to 4-coumaric acid toxicity on yeast cultures” value (concentration of up to 500 mg/L) was “little or no impact”.
